The values that follow are results of earlier work, collected in article PMC10715210, “Colistin plasma concentrations are not associated with better clinical outcomes in patients with pneumonia caused by extremely drug-resistant Pseudomonas aeruginosa” (Microbiology Spectrum, 2023).

The conditions of the series: samples drawn at 45 min after the start of infusion; loading dose 9 million IU CMS then 4.5 million IU every 12 hours; cited from earlier work. The protocol:
([10]). […] Concentrations of CMS and formed colistin in plasma were measured as reported previously ([35], [36]). The limits of quantification for colistin and CMS in plasma were 0.20 and 0.50 mg/L, respectively. Based on the almost flat plasma concentration-time profiles of formed colistin at st ...

Positions of bridges follow the written chain, without caps; N, C: chain ends. Non-standard residues stand in square brackets, D forms with d. Residues, ends and D or L forms follow the SMILES beside them. *: point of attachment. X1 = CC[C@H](C)CCCCC(=O)*; Dab = NCC[C@H](N)C(=O)O

Regarding `CC[C@H](C)CCCCC(=O)N[C@@H](CCN)C(=O)N[C@H](C(=O)N[C@@H](CCN)C(=O)N[C@H]1CCNC(=O)[C@H]([C@@H](C)O)NC(=O)[C@H](CCN)NC(=O)[C@H](CCN)NC(=O)[C@H](CC(C)C)NC(=O)[C@@H](CC(C)C)NC(=O)[C@H](CCN)NC1=O)[C@@H](C)O` [colistin] (X1-[Dab]T[Dab][Dab][Dab][dL]L[Dab][Dab]T; lactam 4-C), the Colistin plasma concentration is recorded as 0.44 (0.14–1.59) mg/L.
